In US9045445B2, “Glycine transporter-1 inhibitors, methods of making them, and uses thereof” (Albany Molecular Research, Inc., priority 2010, dated 2015):
Counter-ions that a name gives are not always drawn.

These molecules were tested against T1, glycine transporter-1 (GlyT-1) (Homo sapiens, UniProt P48067) (assay: [14C]glycine uptake assay in JAR cells endogenously expressing GlyT-1 (scintillation proximity)). Details: GlyT-1 IC50 (nM).
T1 construct: JAR cells (ATCC#HTB-144), which endogenously express GlyT-1; host or cells: JAR human choriocarcinoma cells
T1 sequence (P48067 1-706): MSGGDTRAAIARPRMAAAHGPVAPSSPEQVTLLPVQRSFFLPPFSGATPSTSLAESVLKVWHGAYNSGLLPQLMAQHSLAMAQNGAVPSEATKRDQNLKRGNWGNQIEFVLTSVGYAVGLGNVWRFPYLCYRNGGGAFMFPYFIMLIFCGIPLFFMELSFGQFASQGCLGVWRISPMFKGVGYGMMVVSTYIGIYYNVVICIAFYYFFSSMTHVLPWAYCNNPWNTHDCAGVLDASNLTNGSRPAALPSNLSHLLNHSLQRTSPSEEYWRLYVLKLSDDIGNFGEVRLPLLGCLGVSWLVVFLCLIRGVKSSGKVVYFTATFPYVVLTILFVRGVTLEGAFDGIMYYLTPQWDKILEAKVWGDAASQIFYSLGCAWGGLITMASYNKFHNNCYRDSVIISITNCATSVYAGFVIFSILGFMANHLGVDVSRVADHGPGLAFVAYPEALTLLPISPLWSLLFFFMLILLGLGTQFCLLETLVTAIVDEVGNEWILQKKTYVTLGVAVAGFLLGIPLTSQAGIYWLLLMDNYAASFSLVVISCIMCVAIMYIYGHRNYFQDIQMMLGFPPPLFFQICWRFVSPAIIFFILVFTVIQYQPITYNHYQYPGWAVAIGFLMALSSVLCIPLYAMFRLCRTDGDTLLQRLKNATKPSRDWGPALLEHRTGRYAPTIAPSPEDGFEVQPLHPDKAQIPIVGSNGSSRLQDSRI
Assay type: cell-based
Experimental: The inhibitory activity of compounds of the invention against the glycine transporter-1 (GlyT-1) can be determined by the following scintillation proximity assay. The potency of each compound was assessed in inhibiting the uptake of radiolabeled glycine ([^14C]glycine) using the human choriocarcinoma cell line, JAR cells (ATCC#HTB-144), which endogenously express GlyT-1. In brief, 50,000 JARS cells were plated per well of tissue culture treated 96-well Cytostar-T plate (PerkinElmer) in RPMI media supplemented with 10% heat inactivated FBS and allowed to attach overnight at 37° C. and 5% CO2. Compounds were serially diluted 3-fold in DMSO generating a nine (9) data point response curve for each compound. Two replicates were performed per determination. The compounds were then diluted into Uptake Buffer (10 mM Hepes, 120 mM NaCl, 2 mM KCl, 1 mM CaCl2 and 1 mM MgCl2, 5 mM Alanine, pH 7.4) with a final DMSO concentration of 0.75% (v/v). Following the overnight incubation, the media was replaced with Uptake Buffer in the presence or absence of diluted compound and pre-incubated at room temperature for 10 minutes prior to the addition of [^14C]glycine at a final concentration of 5 μM. Following a 3 hour incubation period at 37° C. and 5% CO2, the plates were sealed and placed at room temperature in the dark for 15 minutes prior to quantification of incorporated radioactivity using a MicroBeta Trilux scintillation plate reader (PerkinElmer). Data were fit into a four-parameter model to determine the inhibitor concentration at half-maximal response (IC50). The assay window was established by control wells incubated with [^14C]glycine in the presence or absence of 10 mM non-labeled glycine. A dose response curve for a synthesized reference standard was generated on every plate as a positive control.

Compound | IC50
CCCS(=O)(=O)N1CCN(C2(CNC(=O)c3c(F)cccc3F)CC3CC3C2)CC1 (stereo not shown) [compound 199, 2,6-Difluoro-N-((3-(4-(propylsulfonyl)piperazin-1-yl)bicyclo[3.1.0]hexan-3-yl)methyl)benzamide Hydrochloride] | 621 nM

Same assay, conditions: JAR cells, [14C]glycine 5 μM, 3 hour incubation; read-out: GlyT-1 IC50

Compound | IC50
CCCS(=O)(=O)N1CCN(C2(CNC(=O)c3ccc(C)c(Cl)c3)CCCCC2)CC1 [compound 31, 3-Chloro-4-methyl-N-((1-(4-(propylsulfonyl)piperazin-1-yl)cyclohexyl)methyl) benzamide Hydrochloride] | 590 nM
CCCS(=O)(=O)N1CCN(C2(CNC(=O)c3ccccc3OC(F)F)CCC(F)(F)CC2)CC1 [compound 142, N-((4,4-Difluoro-1-(4-(propylsulfonyl)piperazin-1-yl)cyclohexyl)methyl)-2-(difluoromethoxy) benzamide Hydrochloride] | 158 nM
CCS(=O)(=O)N1CCN(C2(CNC(=O)c3cc(F)c(Cl)cc3Cl)CCC(F)(F)CC2)CC1 [compound 212, 2,4-Dichloro-N-((1-(4-(ethylsulfonyl)piperazin-1-yl)-4,4-difluorocyclohexyl)methyl)-5-fluorobenzamide Hydrochloride] | 209 nM
CCCS(=O)(=O)N1CCN(C2(CNC(=O)c3c(F)cccc3F)CCC3(CC3)CC2)CC1 [compound 198, 2,6-Difluoro-N-((6-(4-(propylsulfonyl)piperazin-1-yl)spiro[2.5]octan-6-yl)methyl)benzamide Hydrochloride] | 162 nM
CCS(=O)(=O)N1CCN(C2(CNC(=O)c3c(C)cc(C)cc3C)CCC(F)(F)CC2)CC1 [compound 217, N-((1-(4-(Ethylsulfonyl)piperazin-1-yl)-4,4-difluorocyclohexyl)methyl)-2,4,6-trimethylbenzamide Hydrochloride] | 216 nM
CCCS(=O)(=O)N1CCN(C2(CNC(=O)c3c(Cl)cccc3OC)CCC(F)(F)CC2)CC1 [compound 152, 2-Chloro-N-((4,4-difluoro-1-(4-(propylsulfonyl)piperazin-1-yl)cyclohexyl)methyl)-6-methoxybenzamide Hydrochloride] | 34 nM
CCCS(=O)(=O)N1CCN(C2(CNC(=O)c3cccc(C)c3)CCCCC2)CC1 [compound 37, 3-Methyl-N-((1-(4-(propylsulfonyl)piperazin-1-yl)cyclohexyl)methyl) benzamide Hydrochloride] | 1140 nM
CCCS(=O)(=O)N1CCN(C2(CNC(=O)c3ccc(C4CC4)cc3Cl)CCC(F)(F)CC2)CC1 [compound 247, 2-Chloro-4-cyclopropyl-N-((4,4-difluoro-1-(4-(propylsulfonyl)piperazin-1-yl)cyclohexyl)methyl) benzamide Hydrochloride] | 37 nM
CCCS(=O)(=O)N1CCN(C2(CNC(=O)c3ccc(Cl)c(Cl)c3)CCCCC2)CC1 [compound 26, 3,4-Dichloro-N-((1-(4-(propylsulfonyl)piperazin-1-yl)cyclohexyl)methyl) benzamide Hydrochloride] | 245 nM
O=C(NCC1(N2CCN(S(=O)(=O)c3cccnc3)CC2)CCC(F)(F)CC1)c1c(F)cccc1F [compound 269, N-((4,4-Difluoro-1-(4-(pyridin-3-ylsulfonyl)piperazin-1-yl)cyclohexyl)methyl)-2,6-difluorobenzamide Hydrochloride] | 817 nM
CCS(=O)(=O)N1CCN(C2(CNC(=O)c3c(Cl)cc(C(F)(F)F)cc3C(F)(F)F)CCC(F)(F)CC2)CC1 [compound 206, 2-Chloro-N-((1-(4-(ethylsulfonyl)piperazin-1-yl)-4,4-difluorocyclohexyl)methyl)-4,6-bis(trifluoromethyl) benzamide Hydrochloride] | 83 nM
CCS(=O)(=O)N1CCN(C2(CNC(=O)c3cc(F)c(F)cc3Cl)CCC(F)(F)CC2)CC1 [compound 214, 2-Chloro-N-((1-(4-(ethylsulfonyl)piperazin-1-yl)-4,4-difluorocyclohexyl)methyl)-4,5-difluorobenzamide Hydrochloride] | 329 nM
CCS(=O)(=O)N1CCN(C2(CNC(=O)c3ccc(C(F)(F)F)cc3C(F)(F)F)CCC(F)(F)CC2)CC1 [compound 204, N-((1-(4-(Ethylsulfonyl)piperazin-1-yl)-4,4-difluorocyclohexyl)methyl)-2,4-bis(trifluoromethyl) benzamide Hydrochloride] | 95 nM
CCC(F)S(=O)(=O)N1CCN(C2(CNC(=O)c3ccc(C(F)(F)F)cc3Cl)CCC(F)(F)CC2)CC1 (stereo not drawn) [compound 244, 2-Chloro-N-((4,4-difluoro-l-(4-(1-fluoropropylsulfonyl)piperazin-1-yl)cyclohexyl)methyl)-4-(trifluoromethyl)benzamide Hydrochloride] | 51 nM
CCCS(=O)(=O)N1CCN(C2(CNC(=O)c3c(F)cccc3OC(F)(F)F)CCC(F)(F)CC2)CC1 [compound 158, N-((4,4-Difluoro-1-(4-(propylsulfonyl)piperazin-1-yl)cyclohexyl)methyl)-2-fluoro-6-(trifluoro-methoxy)benzamide Hydrochloride] | 35 nM
Cn1cc(S(=O)(=O)N2CCN(C3(CNC(=O)c4ccc(C(F)(F)F)cc4C(F)(F)F)CCOCC3)CC2)nn1 [compound 276, N-((4-(4-(1-Methyl-1H-1,2,3-triazol-4-ylsulfonyl)piperazin-1-yl)tetrahydro-2H-pyran-4-yl)methyl)-2,4-bis(trifluoromethyl) benzamide Hydrochloride] | 7 nM
CCCS(=O)(=O)N1CCN(C2(CNC(=O)c3cc(Cl)ccc3Cl)CCC(F)(F)CC2)CC1 [compound 243, 2,5-Dichloro-N-((4,4-difluoro-1-(4-(propylsulfonyl)piperazin-1-yl)cyclohexyl)methyl) benzamide Hydrochloride] | 57 nM
CCCS(=O)(=O)N1CCN(C2(CNC(=O)c3c(Cl)cccc3OC(F)(F)F)CCC(F)(F)CC2)CC1 [compound 159, 2-Chloro-N-((4,4-difluoro-1-(4-(propylsulfonyl)piperazin-1-yl)cyclohexyl)methyl)-6-(trifluoromethoxy) benzamide Hydrochloride] | 29 nM
CCCS(=O)(=O)N1CCN(C2(CNC(=O)c3c(Cl)cccc3C(F)(F)F)CCC(F)(F)CC2)CC1 [compound 157, 2-Chloro-N-((4,4-difluoro-1-(4-(propylsulfonyl)piperazin-1-yl)cyclohexyl)methyl)-6-(trifluoromethyl)benz-amide Hydrochloride] | 59 nM
Cn1cc(S(=O)(=O)N2CCN(C3(CNC(=O)c4ccc(F)cc4F)CCC(F)(F)CC3)CC2)nn1 [compound 229, N-((4,4-Difluoro-1-(4-(1-methyl-1H-1,2,3-triazol-4-ylsulfonyl)piperazin-1-yl)cyclohexyl)methyl)-2,4-difluorobenzamide Hydrochloride] | 10 nM
CCS(=O)(=O)N1CCN(C2(CNC(=O)c3c(F)cc(OC)cc3F)CCC(F)(F)CC2)CC1 [compound 216, N-((1-(4-(Ethylsulfonyl)piperazin-1-yl)-4,4-difluorocyclohexyl)methyl)-2,6-difluoro-4-methoxybenzamide Hydrochloride] | 1290 nM
COc1cccc(Cl)c1C(=O)NCC1(N2CCN(S(=O)(=O)c3cn(C)cn3)CC2)CCC(F)(F)CC1 [compound 173, 2-Chloro-N-((4,4-Difluoro-1-(4-(1-methyl-1H-imidazol-4-ylsulfonyl)piperazin-1-yl)cyclohexyl)methyl)-6-methoxybenzamide Hydrochloride] | 2 nM
CCCS(=O)(=O)N1CCN(C2(CNC(=O)c3ccc(C)c(C)c3)CCCCC2)CC1 [compound 35, 3,4-Dimethyl-N-((1-(4-(propylsulfonyl)piperazin-1-yl)cyclohexyl)methyl) benzamide Hydrochloride] | 1070 nM
CCS(=O)(=O)N1CCN(C2(CNC(=O)c3c(F)cc(Cl)cc3F)CCC(F)(F)CC2)CC1 [compound 208, 4-Chloro-N-((1-(4-(ethylsulfonyl)piperazin-1-yl)-4,4-difluoro-cyclohexyl)methyl)-2,6-difluorobenzamide Hydrochloride] | 137 nM
